In patent US10857107B2, “Cannabinoid-containing complex mixtures for the treatment of mast cell-associated or basophil-mediated inflammatory disorders” (priority 2017, dated 2020):
Entries after “also recorded” stand apart in the source; their conditions may differ. Where two headings read alike, the source gives them in different places.

How the values were obtained:
Assay type in all cases: cell-based
[1] = tested on: mast cells (from a mast cell line, RBL2H3); test: FcεRI ligation-induced mast cell degranulation measured by histamine release (ELISA); conditions: for anti-inflammatory effects on mast cell degranulation (in words): individual compound alone, 10 μM, histamine release; for inhibition at 10 µM: Rattus norvegicus; for increase of FcεRI ligation-induced histamine secretion: compound alone at 10 μM (FIG. 5)
Protocol: For the FcεRI assay, mast cells (from a mast cell line, RBL2H3) were plated in cluster plates at 5×10^4 cells/well. Monolayers were washed and incubated in 200 μl Tyrode's buffer. The mast cells were then primed with 1 μg/ml IgE-anti-DNP antibodies for 16 hours. The cells were then washed three times and a cannabinoid-containing complex mixture, prepared as above-described, was applied. The tested complex mixtures were applied in an amount calculated to expose the mast cells to 10 μM of cannabidiol and 10 μM of each minor cannabinoid or terpene component. Control for maximal FcεRI ligation-induced degranulation included no cannabinoid-containing complex mixture.
After 10 minutes, 250 ng/ml of DNP-BSA was applied to ligate FcεRI molecules on the mast cell surface.
Mast cell culture medium was collected 60 minutes after exposure to DNP-BSA with or without a tested cannabinoid-containing complex mixture. Degranulation of the mast cells was tested by measuring histamine release using a commercial ELISA kit (e.g., histamine ELISA kit available from ENZO Life Sciences, Inc., Rocky Mountain Diagnostics, Inc., etc.).
Mast cell degranulation for each tested complex mixture was measured based on the amount of histamine release and is presented as % histamine release compared to histamine release in response to PMA/Ionomycin (100%). Each complex mixture was tested in twenty-four (8×3) independent experiments and data from the twenty four independent experiments were averaged. The averaged values are presented as a bar for each complex mixture in FIG. 2. Standard deviations are also provided in the graph.
The % degranulation in response to each cannabinoid-containing complex mixture was used to calculate % inhibition of degranulation by subtracting the % degranulation from 100%.
Anti-inflammatory effects of (i) each major cannabinoid, (ii) each minor cannabinoid, and (iii) each selected terpene, were assessed based on their inhibition of FcεRI-induced mast cell degranulation by measuring histamine release as described above.
Their anti-inflammatory effects are presented as % reduction of histamine release in the presence of the tested compound compared to the histamine release in the presence of PMA/Ionomycin (0%). Standard deviations of the experimental data are also provided in the graphs.

Mast cells [2] = test: Histamine release with cannabidivarin, with or without FcεRI ligation (time course)
Protocol: FIG. 7A provides data from Example 3 illustrating pro-inflammatory effects of cannabidivarin. […] The X-axis represents minutes after application of the FcεRI crosslinking agonist, and the y-axis represents the amount of histamine release (pg/10 million cells). FIG. 7B compares histamine release (pg/10 million cells) measured 10 minutes after exposure to the FcεRI crosslinking agonist (left) or to cannabidivarin without the FcεRI crosslinking agonist (right).
The x-axis represents minutes after application of BSA-DNP and y-axis represents the amount of histamine release (pg/10 million cells). Pro-inflammatory effects of cannabidivarin was even greater than effects of FcεRI ligation; histamine release in response to FcεRI ligation was about 220 pg/10 million cells after 10 minute exposure, while histamine release in response to cannabidivarin (without concurrent FcεRI ligation) was about 340 pg/10 million cells.

RBL2H3 cells [3] = test: FcεRI-induced degranulation with CBG/CBD, FAAH inhibitor or PDEI pre-incubation (beta-hexoaseaminidase assay); conditions: for Outcome (normalized cellular degranulation response): T60
Protocol: Experiments were conducted to test the hypothesis that CBG-mediated anti-inflammatory effects, i.e., suppression of degranulation, is by increase of intracellular cAMP and the increase of intracellular cAMP results from CBG's antagonizing effects on the interaction between AEA and CB1/2 receptors. To test this hypothesis, the ability of CBG to decrease FcεRI-induced degranulation was assessed. Mast cells were incubated with or without CBG before addition of FcεRI. An FAAH inhibitor was used as a control to increase the levels of AEA and thus saturate the CB1/2 receptors, resulting in decreased cAMP. PDEI was used as a control to directly increase the levels of intracellular cAMP. Cells were also incubated with CBD alone or CBG and CBD to assess the synergistic effects of CBD and CBG.
RBL2H3 cells were pre-incubated for 3 h at 37° C. at with (i) 10 μM FAAH inhibitor LY2183240/PF750 cocktail, (ii) 10 μM PDEI 3-isobutyl-1-methylxanthine (IBMX), or (iii) vehicle (Table 3). Vehicle or 300 nM CBG (30% of the CBG dose previously determined to cause maximal enhancement of the suppressive effect of CBD) was applied to Groups D-F and J-I, the first—one hour prior to FcεRI-induction—and the second—two hour prior to FcεRI-induction (T0, antigen), and remained throughout the course of the experiment. Vehicle was DMSO, methanol, or PBS. 10 μM CBD was additionally added to Groups D-I, 20 minutes prior to FcεRI-induction of degranulation. Cellular degranulation was measured using a beta-hexoaseaminidase assay at 1 h post-induction (T60). Replicates were done in triplicate and averaged. Degranulation of each of the groups was normalized to Row L. The outcome data presented in the column “Outcome” of Table 3 is the normalized cellular degranulation response of each averaged group. Group ABC was p<0.005 relative to Group LMN. Group GHI was p<0.005 relative to Group LMN. Row F had no significant difference relative to Row D. Row E was p<0.05 relative to Row D.

Mast cells [4] = test: FcεRI-induced mast cell degranulation, beta-hexoseaminidase assay (dose response); conditions: for change of anti-inflammatory effects when 10 μM cannabigerol was added: various concentrations (1 nM to 50 μM) plus 10 μM cannabigerol; for IC50: read-out: IC50 of inhibitory effects on FcεRI-induced degranulation
Protocol: As provided in FIG. 12, anti-inflammatory effects of limonene, and cannabidiol (CBD), were assessed at 11 different concentrations (x-axis: 0, 1, 5, 10, 50, 100, 500, 1000, 5000, 10000, 50000 nM) in the presence (a line with triangles and a line with circles, respectively) or absence of 10 μM cannabigerol (CBG-a line with diamonds and a line with exes, respectively). In this experiment, anti-inflammatory effects of the mixtures were based on effects on mast cell degranulation, measured using a beta-hexoseaminidase assay.
Beta-hexoseaminidase assays: Mast cells were primed with anti-DNPA IgE, and then stimulated with DNP-BSA in the presence of absence of a tested composition as described in Example 2. Mast cell culture medium was collected 60 minutes after exposure to FcεRI and incubated for 45 minutes at 37° C. 25 μl of its supernatant was removed, clarified by microcentrifugation, and transferred to a 96 well plate containing 100 μl per well 1 mM p-N-acetyl glucosamine (Sigma) in 0.05 M citrate buffer pH 4.5. After incubating the mixture for 1 hour at 37° C., the reaction was quenched by addition of 100 μl per well 0.2 M glycine, pH 9.0. Beta-hexosaminidase levels were read as OD at 405 nm.

[5] = tested on: mast cells (from a mast cell line, RBL2H3); test: FcεRI ligation-induced mast cell degranulation measured by histamine release (ELISA); conditions: nanomolar concentration; compared to PMA/Iomomycin (100%)
RBL2H3 cells [6] = test: Intracellular free calcium assay (Fluo-4); conditions: external calcium 1 mM
Protocol: FIG. 16 provides data from Example 6 illustrating the intracellular free calcium measurements in the presence of external calcium (1 mM) in RBL2H3 cells stimulated in the absence (control vehicle) or presence of 1, 10, or 50 μM CBG. Ionomycin was used as a positive control. Stimuli were added at 20 s.
RBL2H3 cells were washed and incubated with 0.2 μM Fluo-4 for 30 minutes at 37° C. in a standard modified Ringer's solution (145 mM NaCl, 2.8 mM KC1, 10 mM CsCl, +/−1-10 mM CaCl2, 2 mM MgCl2, 10 mM glucose, 10 mM HEPES, pH 7.4, 330 mOsm). Cells were transferred to 96-well plates at 50,000 cells/well and stimulated with 1, 10, or 50 μM CBG. 500 nM ionomycin was used as positive control to induce calcium response. Calcium signals were acquired using a Flexstation 3 (Molecular Devices, Sunnydale, USA) for 3 min. Data was analyzed using SoftMax® Pro 5 (Molecular Devices).

[7] = RBL-2H3, read-out: % inhibition of FcεRI-induced degranulation (reduction of histamine secretion)
[8] = Antigen at T0, only the named substance(s), otherwise vehicle, 300 nM CBG, 10 μM CBD, 10 μM LY2183240/PF750 or IBMX, normalized to Row L
[9] = Antigen at T0, cells pre-incubated 3 h with 10 μM FAAH inhibitor LY2183240/PF750 cocktail, 300 nM CBG, 10 μM CBD
[10] = Antigen at T0, cells pre-incubated 3 h with 10 μM PDEI IBMX, 300 nM CBG, 10 μM CBD

How did the “anti-inflammatory effects on mast cell degranulation (in words)” value (from here on “anti-inflammatory effects … (in words)”) [1] turn out when `CC1=CCC2CC1C2(C)C` (stereo not drawn) [pinene] was run?
Its value is “almost no anti-inflammatory effects”.

Which “anti-inflammatory effects … (in words)” value [1] does the source give for `C=CC(C)(O)CCC=C(C)C` (stereo not drawn) [linalool] here?
The value was “almost no anti-inflammatory effects”.

How did the “anti-inflammatory effects … (in words)” value [1] turn out when `C=CC(C)(O)CCC=C(C)CCC=C(C)C` (stereo not drawn) [nerolidol] was run?
The value was “almost no anti-inflammatory effects”.

What does the source list for `CCCCCc1cc(O)c2c(c1)OC(C)(CCC=C(C)C)C=C2` (stereo not drawn) [cannabichromene]?
inhibition at 10 µM [1, 7]: ≤ 20%; anti-inflammatory effects on mast cell degranulation (in words) [1]: almost no anti-inflammatory effects

`C=C(C)[C@@H]1CCC(C)=C[C@H]1c1c(O)cc(CCC)cc1O` [cannabidivarin] was tested. Which histamine release (Mast cells [2]; in response to cannabidivarin without concurrent FcεRI ligation, 10 minute exposure) did it give?
The histamine release was “about 340 pg/10 million cells”.

And the “effect of pretreatment on FcεRI ligation-induced histamine release” value (Mast cells [2]; pretreatment with 10 μM for 10 minutes before FcεRI ligation)?
Its value is “significantly enhanced pro-inflammatory effects of FcεRI ligation; also recorded: further enhanced pro-inflammatory effects”.

And the “increase of FcεRI ligation-induced histamine secretion” value [1]?
The value was 26%.

What about the “increase of FcεRI ligation-induced histamine secretion” value ([1]; listed as Cannabidivarin) of the same molecule?
Its value is “more than 20%”.

For `CC(C)Cn1c(=O)n(C)c(=O)c2[nH]cnc21` [IBMX, 3-isobutyl-1-methylxanthine], which “Outcome (normalized cellular degranulation response)” value (RBL2H3 cells [3]; [8]) is on record?
The value was 0.34.

And the “reduction of FcεRI-induced degranulation” value (RBL2H3 cells [3]; alone, 10 μM, Row N)?
The value was 3 fold.

What about the “Outcome (normalized cellular degranulation response)” value (RBL2H3 cells [3]; no Antigen (vehicle at T0), 10 μM pre-incubation 3 h) of the same molecule?
The value was 0.06.

Which “change of anti-inflammatory effects when 10 μM cannabigerol was added” value (Mast cells [4]) does the source give for `C=C(C)[C@@H]1CCC(C)=C[C@H]1c1c(O)cc(CCCCC)cc1O` [cannabidiol] here?
Its value is “significantly enhanced their anti-inflammatory effects”.

And the “Outcome (normalized cellular degranulation response)” value (RBL2H3 cells [3]; [9])?
Its value is 0.56.

And the “Outcome (normalized cellular degranulation response)” value (RBL2H3 cells [3]; [10])?
Its value is 0.32.

And the “Outcome (normalized cellular degranulation response)” value (RBL2H3 cells [3]; [8])?
Its value is 0.54.

And the inhibition at 10 µM ([1]; RBL-2H3, read-out: % inhibition of FcεRI-induced degranulation (reduction of histamine secretion), individual compound alone at 10 μM)?
The inhibition at 10 µM was 23%.

How did the “suppression of histamine release of mast cells” value [5] turn out when `CCCCCCC(C)(C)c1ccc([C@@H]2C[C@H](O)CC[C@H]2CCCO)c(O)c1` [CP55940] was run?
The value was “about 30%”.

Which “suppression of FcεRI ligation-induced degranulation” value (Mast cells [4]; alone, at the highest concentration tested (50 μM)) does the source give for `CCCCCc1cc(O)c(C/C=C(\C)CCC=C(C)C)c(O)c1` [cannabigerol] here?
The value was “less than 10%”.

What about the “effect on intracellular calcium” value (RBL2H3 cells [6]; 50 μM) of the same molecule?
The value was “moderate increase in intracellular calcium”.

And the “effect on intracellular calcium” value (RBL2H3 cells [6]; lower doses (1 and 10 μM))?
Its value is “did not significantly alter the intracellular calcium”.

What about the “Outcome (normalized cellular degranulation response)” value (RBL2H3 cells [3]; [9]) of the same molecule?
The value was 0.92.

What about the “Outcome (normalized cellular degranulation response)” value (RBL2H3 cells [3]; [10]) of the same molecule?
The value was 0.28.

What about the “Outcome (normalized cellular degranulation response)” value (RBL2H3 cells [3]; [8]) of the same molecule?
The value was 0.98.

And the inhibition at 10 µM [1, 7]?
The inhibition at 10 µM was ≤ 20%.

What about the “anti-inflammatory effects … (in words)” value [1] of the same molecule?
The value was “almost no anti-inflammatory effects”.

And the “anti-inflammatory effects … (in words)” value ([1]; listed as Cannabigerol)?
The value was “does not have significant effects on mast cell degranulation”.

With `C/C(=C\CO)CCC[C@H](C)CCC[C@H](C)CCCC(C)C` [phytol] as the molecule, how does the “anti-inflammatory effects … (in words)” value [1] read?
Its value is “almost no anti-inflammatory effects”.

Which inhibition at 10 µM [1, 7] does the source give for `CCCCCc1cc(O)c2c(c1)OC(C)(C)c1ccc(C)cc1-2` [cannabinol] here?
The inhibition at 10 µM was ≤ 20%.

How did the IC50 (Mast cells [4]; alone) turn out when `C=C(C)[C@H]1CC=C(C)CC1` [limonene] was run?
The IC50 was ~480 nM.

What about the IC50 (Mast cells [4]; in combination with 10 μM cannabigerol (CBG)) of the same molecule?
The IC50 was ~100 nM.

And the “change of anti-inflammatory effects when 10 μM cannabigerol was added” value (Mast cells [4])?
The value was “significantly enhanced their anti-inflammatory effects”.

What about the “% inhibition of FcεRI-induced degranulation (reduction of histamine secretion)” value ([1]; individual compound alone at 10 μM) of the same molecule?
Its value is 24%.
